Our source for the mutagenic call values is PubChem BioAssay AID1259407 (Chemical Carcinogenesis Research Information System (CCRIS), 2018).

This data set has as its system CCRIS mutagenicity, Ames/micronucleus/aberration tests. The experiment in a line: CCRIS mutagenicity studies.
The mark [1] stands for this setting: Test System: AMES SALMONELLA TYPHIMURIUM, Strain/Indicator: TA98, Metabolic Activation: NONE, Method: STANDARD PLATE.
Where [2] appears, read: Test System: AMES SALMONELLA TYPHIMURIUM, Strain/Indicator: TA100, Metabolic Activation: NONE, Method: STANDARD PLATE.

Calls of active or inactive are those of the source. No rule for the calls is given here.

On to `C=CCN=C=S`, for which the mutagenic call by setting is: (End Point: IN VITRO CHROMOSOMAL ABERRATIONS, Test System: CHINESE HAMSTER OVARY CELLS, Metabolic Activation: NONE) “active; positive”; (End Point: IN VITRO CHROMOSOMAL ABERRATIONS, Test System: CHINESE HAMSTER OVARY CELLS, Metabolic Activation: RAT, LIVER, S-9, AROCLOR 1254) “active; positive”; (End Point: IN VITRO CHROMOSOMAL ABERRATIONS, Test System: CHINESE HAMSTER OVARY CELLS, Metabolic Activation: RAT. LIVER, S-9, AROCLOR 1254) “inactive; negative”; (Test System: AMES SALMONELLA TYPHIMURIUM, Strain/Indicator: TA97, Metabolic Activation: NONE, Method: PREINCUBATION) “inactive; negative”; (Test System: AMES SALMONELLA TYPHIMURIUM, Strain/Indicator: TA97, Metabolic Activation: NONE, Method: PREINCUBATION (120 MIN)) “inactive; negative”; (Test System: AMES SALMONELLA TYPHIMURIUM, Strain/Indicator: TA97, Metabolic Activation: RAT, LIVER, S-9, AROCLOR 1254, Method: PREINCUBATION) “inactive; negative”. Moreover, the mutagenic call (Test System: AMES SALMONELLA TYPHIMURIUM, Strain/Indicator: TA97, Metabolic Activation: S-9, Method: PREINCUBATION (120 MIN)) was “inactive; negative”; the mutagenic call (Test System: AMES SALMONELLA TYPHIMURIUM, Strain/Indicator: TA98, Metabolic Activation: NONE, Method: PREINCUBATION (120 MIN)) is “inactive; negative”; the mutagenic call under setting [1] is “inactive; negative”; the mutagenic call (Test System: AMES SALMONELLA TYPHIMURIUM, Strain/Indicator: TA98, Metabolic Activation: RAT LIVER S-9, AROCLOR 1254, Method: STANDARD PLATE) was “active; positive”; the mutagenic call (Test System: AMES SALMONELLA TYPHIMURIUM, Strain/Indicator: TA98, Metabolic Activation: S-9, Method: PREINCUBATION (120 MIN)) was “inactive; negative”; the mutagenic call (Test System: AMES SALMONELLA TYPHIMURIUM, Strain/Indicator: TA98, Metabolic Activation: S-9, Method: STANDARD PLATE) is “inactive; negative”. For the same compound, the mutagenic call reads like this: (Test System: AMES SALMONELLA TYPHIMURIUM, Strain/Indicator: TA100, Metabolic Activation: NONE, Method: PREINCUBATION (20, 60 OR 120 MIN)) “inactive; negative”; (Test System: AMES SALMONELLA TYPHIMURIUM, Strain/Indicator: TA100, Metabolic Activation: NONE, Method: PREINCUBATION (120 MIN)) “inactive; negative”; under setting [2], “inactive; negative”; (Test System: AMES SALMONELLA TYPHIMURIUM, Strain/Indicator: TA100, Metabolic Activation: RAT LIVER S-9, AROCLOR 1254, Method: STANDARD PLATE) “active; positive”; (Test System: AMES SALMONELLA TYPHIMURIUM, Strain/Indicator: TA100, Metabolic Activation: RAT, LIVER, S-9, AROCLOR 1254 (3.8 MG PROTEIN/ML), Method: PREINCUBATION (60 OR 120 MIN)) “active; positive”; (Test System: AMES SALMONELLA TYPHIMURIUM, Strain/Indicator: TA100, Metabolic Activation: RAT, LIVER, S-9, AROCLOR 1254 (3.8 OR 11.4 MG PROTEIN/ML), Method: PREINCUBATION (20 MIN)) “inactive; negative”. For the same compound, the mutagenic call (Test System: AMES SALMONELLA TYPHIMURIUM, Strain/Indicator: TA100, Metabolic Activation: RAT, LIVER, S-9, AROCLOR 1254 (11.4 MG PROTEIN/ML), Method: PREINCUBATION (60 MIN)) is “inactive; negative”; the mutagenic call (Test System: AMES SALMONELLA TYPHIMURIUM, Strain/Indicator: TA100, Metabolic Activation: RAT, LIVER, S-9, AROCLOR 1254 (11.4 MG PROTEIN/ML), Method: PREINCUBATION (120 MIN)) was “active; positive”; the mutagenic call (Test System: AMES SALMONELLA TYPHIMURIUM, Strain/Indicator: TA100, Metabolic Activation: S-9, Method: PREINCUBATION (120 MIN)) is “inactive; negative”; the mutagenic call (Test System: AMES SALMONELLA TYPHIMURIUM, Strain/Indicator: TA100, Metabolic Activation: S-9, Method: STANDARD PLATE) was “inactive; negative”; the mutagenic call (Test System: AMES SALMONELLA TYPHIMURIUM, Strain/Indicator: TA102, Metabolic Activation: NONE, Method: PREINCUBATION) was “inactive; negative”; the mutagenic call (Test System: AMES SALMONELLA TYPHIMURIUM, Strain/Indicator: TA102, Metabolic Activation: RAT, LIVER, S-9, AROCLOR 1254, Method: PREINCUBATION) was “inactive; negative”. In addition, where the note is “Test System: UDS RAT HEPATOCYTES, Strain/Indicator: THY-INCORP, Metabolic Activation: IN VIVO, Method: AUTORADIOGRAPHY”, the mutagenic call is “inactive; negative”.

Consider `Cc1ccc(CCl)cc1`, for which, under setting [2], the mutagenic call is “inactive; negative”.

In the case of `Clc1cnc(Oc2ccc(Oc3ncc(Cl)cc3Cl)cc2)c(Cl)c1`, the mutagenic call is, setting by setting: under setting [1], “inactive; negative”; (Test System: AMES SALMONELLA TYPHIMURIUM, Strain/Indicator: TA98, Metabolic Activation: RAT, LIVER, S-9, PHENOBARBITAL AND 5,6-BENZOFLAVONE, Method: STANDARD PLATE) “inactive; negative”; (Test System: AMES SALMONELLA TYPHIMURIUM, Strain/Indicator: TA98, Method: STANDARD PLATE) “inactive; negative”; under setting [2], “inactive; negative”; (Test System: AMES SALMONELLA TYPHIMURIUM, Strain/Indicator: TA100, Metabolic Activation: RAT, LIVER, S-9, PHENOBARBITAL AND 5,6-BENZOFLAVONE, Method: STANDARD PLATE) “inactive; negative”; (Test System: AMES SALMONELLA TYPHIMURIUM, Strain/Indicator: TA100, Method: STANDARD PLATE) “inactive; negative”. Also, the mutagenic call by setting is: (Test System: AMES SALMONELLA TYPHIMURIUM, Strain/Indicator: TA102, Metabolic Activation: NONE, Method: STANDARD PLATE) “inactive; negative”; (Test System: AMES SALMONELLA TYPHIMURIUM, Strain/Indicator: TA102, Metabolic Activation: RAT, LIVER, S-9, PHENOBARBITAL AND 5,6-BENZOFLAVONE, Method: STANDARD PLATE) “inactive; negative”; (Test System: AMES SALMONELLA TYPHIMURIUM, Strain/Indicator: TA102, Method: STANDARD PLATE) “inactive; negative”.
